According to patent US8124111B2, “Immunomodulation by altering sphingosine 1-phosphate lyase (SPL) activity” (Children's Hospital & Research Center at Oakland, priority 2005, dated 2012):

Assays:
Lymphocytes = assay: Lymphocyte counts after FTY720 treatment; assay type: in vivo, mice
Protocol: Drug treatments and leukocyte/lymphocyte counts: Four-week old FVB or C3H mice were obtained from Charles River Laboratories (Wilmington, Mass.). Animals were maintained in a pathogen-free facility in microisolator cages. Mice were anaesthetized with isoflurane inhalation, and a single dose of FTY720 (at 1 or 3 mg/kg) or GT11 (at 1, 10 or 100 mg/kg) in sterile water was injected intraperitoneally at time zero. Blood counts were determined by Coulter counter (Coulter Instruments, Hialeah, Fla.) and by manual differential counting. Mice were euthanized by CO2 inhalation at various time points post-injection, followed by tissue harvest. All animal studies were performed in accordance with approved CHORI IACUC protocols.
Inhibition of SPL by FTY720 in vivo—The effect on SPL enzyme activity of FTY720 administration was tested. Four-week old female FVB mice were given 1 mg/kg FTY720 by intraperitoneal injection, and tissue SPL activity in thymus was assessed over time. […] SPL inhibition occurred concomitantly with lymphopenia, and was consistent with the timing of lymphopenia reported previously (Chiba et al., (1998) J Immunol 160, 5037-5044) (Table 1).

[1] = tested on: human SPL luciferase reporter construct; assay: SPL gene expression, human SPL luciferase reporter in HEK293 cells; assay type: cell-based; conditions: 0.3 μM or 3.0 μM, 24 hours
Protocol: (A) SPL gene expression. HEK293 cells were co-transfected with a human SPL luciferase reporter construct and the sea pansy luciferase reporter as a control for transfection efficiency. Twenty-four hours after transfection, cells were treated with 0.3 μM FTY720, 3.0 μM FTY720 or vehicle and incubated for another 24 hours at 37° C. Luciferase activity was then determined as a measure of expression, as described in Experimental Methods. Values shown are luciferase activity normalized to sea pansy luciferase; (B) SPL protein expression. Thymic extracts from control mice (time 0) and mice treated with FTY720 for 24 hours were evaluated for SPL protein expression by immunoblotting. Actin was used as a loading control.
SPL expression: To evaluate the effect of FTY720 and FTY720-P on SPL gene expression, HEK293 cells were treated for 30 minutes with 3 μM of either drug, followed by transfection with pSPL-BamHI, a human SPL-luciferase reporter construct. After 48 hours, reporter expression was determined by luciferase activity as described (Oskouian et al., (2005) J Biol Chem 280, 18403-18410)). Western blotting of mouse tissue extracts was performed using a 1:2000 dilution of polyclonal sera raised against the murine SPL C-terminal peptide: (NH2)—V-T-Q-G-N-Q-M-N-G-S—P—K—P—R—(COOH). [SEQ ID NO:11] […]

`CCCCCCCCc1ccc(CCC(N)(CO)CO)cc1` [FTY720] was tested, and the Lymphocytes (Lymphocytes; 24 hours after FTY720) was 2.2 1000/μL, the Lymphocytes (Lymphocytes; 48 hours after FTY720) was 3.2 1000/μL and the Lymphocytes (Lymphocytes; 72 hours after FTY720) was 2.0 1000/μL. The “SPL gene expression (luciferase activity normalized to sea pansy luciferase)” value [1] was “not affected”.
